Data reported in US20250250646A1, “DUAL GENETIC REPORTERS IN HUMAN PLURIPOTENT CELLS FOR USE AS ALTERNATIVE TO MOUSE EMBRYO ASSAY” (Nexpring US Opco Inc., priority 2022, published 2025).

Key:
CGA-snLuc cells = conditions: MEAlt assays; low levels of adulterant
Description: (§1) To perform this assay, cells from the cell lines described in Example 1 were thawed using standard procedures and plated on Vitronectin coated wells of a 96-well plate in Essential 8 Flex medium with Revitacell supplement. Plating density for SOX2-snLuc cells was approximately 20,000 cells per well and for the CGA-snLuc cells, approximately 15,000 cells per well. Empty wells were filled with PBS to reduce variation in Nanoluciferase concentration related to evaporation. Cells were allowed to recover for 7-18 hours prior to exposure to test media.
For CGA-snLuc cells the activation of the reporter required medium that supported trophectoderm/placental differentiation, such as BAP medium. […] DAF-BAP contained DMEM with 25 mM HEPES and 4.5 g/L Glucose and without L-Glutamine, 100 ng/ml BMP-4, 1 μM A83-01, 0.1 μM PD173074, 5 mg/mL of AlbumiNZ Bovine Albumin Low Free Fatty Acid, and 40 μM forskolin. Media was pre-warmed prior to forskolin addition to prevent precipitation.
Following recovery from thawing, media was exchanged to the respective test medium for each cell line. […] Secreted Nanoluciferase was detected by removing 10% of the culture media and mixing in a white assay plate with substrate and buffer using the Promega Nano-Glo Luciferase Assay kit. Luminescence was measured with a BioTek Cytation 1 imaging reader. […]

SOX2-snLuc cells = conditions: MEAlt assays; low levels of adulterant
Description: as §1
For SOX2-snLuc cells the test media was Essential 8 Flex.
Following recovery from thawing, media was exchanged to the respective test medium for each cell line. […] In the case of SOX2-snLuc cells, a baseline read of Luciferase expression was optionally performed prior to media exchange to assess variations in plating density or post-thaw recovery. Exposure to test medium was for 24-96 hours for SOX2-snLuc cells and 48-96 hours for CGA-snLuc cells. Secreted Nanoluciferase was detected by removing 10% of the culture media and mixing in a white assay plate with substrate and buffer using the Promega Nano-Glo Luciferase Assay kit. Luminescence was measured with a BioTek Cytation 1 imaging reader.
The assay was also tested in the context of detecting an adulterant, ethylene glycol (EG), that is known to affect viability of mouse embryos.

Molecule	detection of adulterant by the MEAlt assay (CGA-snLuc cells)	detection of adulterant by the MEAlt assay (SOX2-snLuc cells)
C=O [formaldehyde]	successfully detect low levels	successfully detect low levels
triton-x-100	successfully detect low levels	successfully detect low levels
